From patent EP0435794A1, “Alkenyl- or heteroaryl thio, sulfone, sulfoxy herbicides” (RHONE-POULENC AGROCHIMIE, priority 1989, dated 1991)

Experiments:
Type in all cases: in vivo
Setaria faberii = experiment: Exemple C: selectivity test in field crops, pre-emergence (weed); details: 24 days
Description: (§1) Exemple C - Essai de sélectivité en grandes cultures avec application herbicide, en prélevée des espèces végétales
(§2) Dans des pots de 7 X 7 X 8 cm remplis de terre agricole légère, on sème un nombre de graines déterminé en fonction de l'espèce végétale et de la grosseur de la graine.
(§3) On recouvre ensuite les graines d'une couche de terre d'environ 3 mm d'épaisseur.
(§4) Les pots sont alors traités par pulvérisation de bouillie en quantité correspondant à une dose volumique d'application de 500 l/ha et contenant la matière active à la concentration désirée.
(§5) La bouillie a été préparée de la même manière qu'à l'exemple A.
(§6) Les pots traités sont ensuite placés dans des bacs destinés à recevoir l'eau d'arrosage, en subirrigation, et maintenus pendant 24 jours à température ambiante sous 70 % d'humidité relative.
(§7) Le relevé est effectué de la façon suivante:
(§8) Au bout de 24 jours, on mesure un pourcentage (D) de destruction du nombre de pieds dans le pot traité par rapport au nombre de plantes dans les pots non traités (témoin). On mesure, sur les plantes traitées restantes, le pourcentage de réduction de taille (RT) par rapport aux plantes témoins.
(§9) Le pourcentage de volume foliaire non détruit par le produit est donc donné par la formule: ([100-D] X [100-RT])/(100)= A [formula]
(§10) Cette valeur A est transformée en notation de 0 à 5 selon l'échelle suivante:
(§11) Ainsi, un produit est jugé comme sélectif vis à vis de la culture lorsque la valeur A notée est de 0 ou 1.
(§12) Les résultats obtenus sont présentés dans l'exemple C pour des doses d'application de 500, 1000, 2000 ou 4000 g de matière active par hectare selon les produits.
(§13) Les espèces végétales utilisées dans cet exemple sont: […]

Panicum milicaeum = experiment: as above; details: 24 days
Description: as §1, §2, §3, §4, §5, §6, §7, §8, §9, §10, §11, §12, §13

Alopecurus myosuroides = experiment: as above; details: 24 days
Description: as §1, §2, §3, §4, §5, §6, §7, §8, §9, §10, §11, §12, §13

Echinochloa crus-galli = experiment: as above; details: 24 days
Description: as §1, §2, §3, §4, §5, §6, §7, §8, §9, §10, §11, §12, §13

Sorghum halepense = experiment: as above; details: 24 days
Description: as §1, §2, §3, §4, §5, §6, §7, §8, §9, §10, §11, §12, §13

blé = experiment: Exemple C: selectivity test in field crops, pre-emergence (crop); details: 24 days, 0 or 1 = selective; also: ranges in brackets are in %
Description: as §1, §2, §3, §4, §5, §6, §7, §8, §9, §10, §11, §12
(§14) Les espèces végétales utilisées dans cet exemple sont:
(§15) Comme on peut le voir sur le tableau de résultats de cet exemple C, de nombreux produits présentent une excellente activité antigraminée de prélevée tout en montrant une excellente sélectivité pour 1 ou 2 ou 3 ou 4 des 4 cultures testées = blé, maïs, riz, soja.

riz = experiment: as above; details: 24 days, 0 or 1 = selective; also: ranges in brackets are in %
Description: as §1, §2, §3, §4, §5, §6, §7, §8, §9, §10, §11, §12, §14, §15

maïs = experiment: as above; details: 24 days, 0 or 1 = selective; also: ranges in brackets are in %
Description: as §1, §2, §3, §4, §5, §6, §7, §8, §9, §10, §11, §12, §14, §15

soja = experiment: as above; details: 24 days, 0 or 1 = selective; also: ranges in brackets are in %
Description: as §1, §2, §3, §4, §5, §6, §7, §8, §9, §10, §11, §12, §14, §15

Digitaria sanguinalis = experiment: Exemple C: selectivity test in field crops, pre-emergence (weed); details: 24 days
Description: as §1, §2, §3, §4, §5, §6, §7, §8, §9, §10, §11, §12, §13

With `C=C(CS(=O)(=O)/C=C/C)c1ccccc1` [compound 70, (E)-2-phényl 1-(1-propénylsulfonyl)2-propène] the “Notation de l'activité herbicide SET” value (Setaria faberii; dose 2 Kg m.a./ha) was 3 (30 à 50), the “Notation de l'activité herbicide PAN” value (Panicum milicaeum; dose 2 Kg m.a./ha) was 3 (30 à 50) and the “Notation de l'activité herbicide ALO” value (Alopecurus myosuroides; dose 2 Kg m.a./ha) was 4 (10 à 30). For the same molecule, the “Notation de l'activité herbicide ECh” value (Echinochloa crus-galli; dose 2 Kg m.a./ha) was 5 (O à 10), the “Notation de l'activité herbicide SOR” value (Sorghum halepense; dose 2 Kg m.a./ha) was 5 (O à 10) and the “Notation de l'activité herbicide TRZ” value (blé; dose 2 Kg m.a./ha) was 2 (50 à 70). For the same molecule, the “Notation de l'activité herbicide ORY” value (riz; dose 2 Kg m.a./ha) was 1 (70 à 90), the “Notation de l'activité herbicide ZEA” value (maïs; dose 2 Kg m.a./ha) was 0 (90 à 100) and the “Notation de l'activité herbicide GLY” value (soja; dose 2 Kg m.a./ha) was 0 (90 à 100).
`Cc1ccsc1S(=O)(=O)CC(O)(CBr)c1ccccc1` (centres unmarked) [compound 63] was tested, and the “Notation de l'activité herbicide SET” value (Setaria faberii; dose 1 Kg m.a./ha) was 5 (O à 10), the “Notation de l'activité herbicide PAN” value (Panicum milicaeum; dose 1 Kg m.a./ha) was 4 (10 à 30) and the “Notation de l'activité herbicide ALO” value (Alopecurus myosuroides; dose 1 Kg m.a./ha) was 3 (30 à 50). The “Notation de l'activité herbicide SOR” value (Sorghum halepense; dose 1 Kg m.a./ha) was 5 (O à 10), the “Notation de l'activité herbicide DIG” value (Digitaria sanguinalis; dose 1 Kg m.a./ha) was 5 (O à 10) and the “Notation de l'activité herbicide TRZ” value (blé; dose 1 Kg m.a./ha) was 3 (30 à 50). For the same molecule, the “Notation de l'activité herbicide ORY” value (riz; dose 1 Kg m.a./ha) was 4 (10 à 30), the “Notation de l'activité herbicide ZEA” value (maïs; dose 1 Kg m.a./ha) was 2 (50 à 70) and the “Notation de l'activité herbicide GLY” value (soja; dose 1 Kg m.a./ha) was 0 (90 à 100).
`O=S(=O)(CC(O)(CBr)c1cccc(F)c1)c1sccc1Cl` (centres unmarked) [compound 67] was tested, and the “Notation de l'activité herbicide SET” value (Setaria faberii; dose 0.5 Kg m.a./ha) was 4 (10 à 30), the “Notation de l'activité herbicide PAN” value (Panicum milicaeum; dose 0.5 Kg m.a./ha) was 4 (10 à 30) and the “Notation de l'activité herbicide ALO” value (Alopecurus myosuroides; dose 0.5 Kg m.a./ha) was 2 (50 à 70). The “Notation de l'activité herbicide ECh” value (Echinochloa crus-galli; dose 0.5 Kg m.a./ha) was 4 (10 à 30), the “Notation de l'activité herbicide SOR” value (Sorghum halepense; dose 0.5 Kg m.a./ha) was 1 (70 à 90) and the “Notation de l'activité herbicide DIG” value (Digitaria sanguinalis; dose 0.5 Kg m.a./ha) was 5 (O à 10). The “Notation de l'activité herbicide TRZ” value (blé; dose 0.5 Kg m.a./ha) was 0 (90 à 100), the “Notation de l'activité herbicide ORY” value (riz; dose 0.5 Kg m.a./ha) was 0 (90 à 100) and the “Notation de l'activité herbicide ZEA” value (maïs; dose 0.5 Kg m.a./ha) was 1 (70 à 90). For the same molecule, the “Notation de l'activité herbicide GLY” value (soja; dose 0.5 Kg m.a./ha) was 0 (90 à 100).
In the case of `C=C(CS(=O)(=O)c1sc(C)nc1C)c1cc(C)cc(C)c1` [compound 46], the “Notation de l'activité herbicide SET” value (Setaria faberii; dose 1 Kg m.a./ha) is reported as 1 (70 à 90), the “Notation de l'activité herbicide PAN” value (Panicum milicaeum; dose 1 Kg m.a./ha) is reported as 5 (O à 10) and the “Notation de l'activité herbicide ALO” value (Alopecurus myosuroides; dose 1 Kg m.a./ha) is reported as 5 (O à 10). The “Notation de l'activité herbicide ECh” value (Echinochloa crus-galli; dose 1 Kg m.a./ha) was 4 (10 à 30), the “Notation de l'activité herbicide SOR” value (Sorghum halepense; dose 1 Kg m.a./ha) was 1 (70 à 90) and the “Notation de l'activité herbicide DIG” value (Digitaria sanguinalis; dose 1 Kg m.a./ha) was 5 (O à 10). For the same molecule, the “Notation de l'activité herbicide TRZ” value (blé; dose 1 Kg m.a./ha) was 0 (90 à 100), the “Notation de l'activité herbicide ORY” value (riz; dose 1 Kg m.a./ha) was 0 (90 à 100) and the “Notation de l'activité herbicide ZEA” value (maïs; dose 1 Kg m.a./ha) was 0 (90 à 100). The “Notation de l'activité herbicide GLY” value (soja; dose 1 Kg m.a./ha) was 0 (90 à 100).
For `C=C(CS(=O)(=O)C=C(C)C)c1ccccc1` [compound 73], the “Notation de l'activité herbicide SET” value (Setaria faberii; dose 2 Kg m.a./ha) was 0 (90 à 100), the “Notation de l'activité herbicide PAN” value (Panicum milicaeum; dose 2 Kg m.a./ha) was 3 (30 à 50) and the “Notation de l'activité herbicide ALO” value (Alopecurus myosuroides; dose 2 Kg m.a./ha) was 4 (10 à 30). The “Notation de l'activité herbicide ECh” value (Echinochloa crus-galli; dose 2 Kg m.a./ha) was 5 (O à 10), the “Notation de l'activité herbicide SOR” value (Sorghum halepense; dose 2 Kg m.a./ha) was 3 (30 à 50) and the “Notation de l'activité herbicide DIG” value (Digitaria sanguinalis; dose 2 Kg m.a./ha) was 3 (30 à 50). The “Notation de l'activité herbicide TRZ” value (blé; dose 2 Kg m.a./ha) was 1 (70 à 90), the “Notation de l'activité herbicide ORY” value (riz; dose 2 Kg m.a./ha) was 0 (90 à 100) and the “Notation de l'activité herbicide ZEA” value (maïs; dose 2 Kg m.a./ha) was 2 (50 à 70). The “Notation de l'activité herbicide GLY” value (soja; dose 2 Kg m.a./ha) was 0 (90 à 100).
`O=S(=O)(CC(O)(CBr)c1cccc(F)c1)c1cccs1` (centres unmarked) [compound 53, 1-bromo 2-(3-fluorophényl) 3-(2-thiénylsulfonyl) 2-propanol] was tested, and the “Notation de l'activité herbicide SET” value (Setaria faberii; dose 0.5 Kg m.a./ha) was 1 (70 à 90), the “Notation de l'activité herbicide PAN” value (Panicum milicaeum; dose 0.5 Kg m.a./ha) was 1 (70 à 90) and the “Notation de l'activité herbicide ALO” value (Alopecurus myosuroides; dose 0.5 Kg m.a./ha) was 2 (50 à 70). The “Notation de l'activité herbicide ECh” value (Echinochloa crus-galli; dose 0.5 Kg m.a./ha) was 4 (10 à 30), the “Notation de l'activité herbicide SOR” value (Sorghum halepense; dose 0.5 Kg m.a./ha) was 4 (10 à 30) and the “Notation de l'activité herbicide DIG” value (Digitaria sanguinalis; dose 0.5 Kg m.a./ha) was 4 (10 à 30). For the same molecule, the “Notation de l'activité herbicide TRZ” value (blé; dose 0.5 Kg m.a./ha) was 0 (90 à 100), the “Notation de l'activité herbicide ORY” value (riz; dose 0.5 Kg m.a./ha) was 3 (30 à 50) and the “Notation de l'activité herbicide ZEA” value (maïs; dose 0.5 Kg m.a./ha) was 2 (50 à 70). For the same molecule, the “Notation de l'activité herbicide GLY” value (soja; dose 0.5 Kg m.a./ha) was 0 (90 à 100).
With `C=C(CS(=O)(=O)c1sc(C)nc1C)c1cccc(C)c1` [compound 47] the “Notation de l'activité herbicide SET” value (Setaria faberii; dose 1 Kg m.a./ha) was 2 (50 à 70), the “Notation de l'activité herbicide PAN” value (Panicum milicaeum; dose 1 Kg m.a./ha) was 5 (O à 10) and the “Notation de l'activité herbicide ALO” value (Alopecurus myosuroides; dose 1 Kg m.a./ha) was 5 (O à 10). For the same molecule, the “Notation de l'activité herbicide ECh” value (Echinochloa crus-galli; dose 1 Kg m.a./ha) was 4 (10 à 30), the “Notation de l'activité herbicide SOR” value (Sorghum halepense; dose 1 Kg m.a./ha) was 3 (30 à 50) and the “Notation de l'activité herbicide DIG” value (Digitaria sanguinalis; dose 1 Kg m.a./ha) was 5 (O à 10). For the same molecule, the “Notation de l'activité herbicide TRZ” value (blé; dose 1 Kg m.a./ha) was 0 (90 à 100), the “Notation de l'activité herbicide ORY” value (riz; dose 1 Kg m.a./ha) was 2 (50 à 70) and the “Notation de l'activité herbicide ZEA” value (maïs; dose 1 Kg m.a./ha) was 1 (70 à 90). The “Notation de l'activité herbicide GLY” value (soja; dose 1 Kg m.a./ha) was 0 (90 à 100).
